Numbered stars: 1 amine (or outer) side, 2 acyl side, 3 side chain; on linkers, the order of the positions; unused ones are H or OH. Peptide text beside a SMILES is read from it. * marks the point of attachment. C20 diacid = O=C(O)CCCCCCCCCCCCCCCCCCC(=O)*; C18 diacid = O=C(O)CCCCCCCCCCCCCCCCC(=O)*; γGlu = O=C(O)[C@H](CCC(=O)[*:2])N[*:1]
Assays:
[1] = molecular target: T1, Amylin receptor AMY3; CALCR/RAMP3 (Homo sapiens, UniProt O60896+P30988); test: Agonist activity at human amylin receptor expressed in BHK570 cells co-expressing RAMP3 assessed as increase in intracellular cAMP concentration incubated for 3 hrs in absence of albumin by CRE luciferase reporter gene assay; format: functional, cell-based
T1 sequence (P30988 whole entry): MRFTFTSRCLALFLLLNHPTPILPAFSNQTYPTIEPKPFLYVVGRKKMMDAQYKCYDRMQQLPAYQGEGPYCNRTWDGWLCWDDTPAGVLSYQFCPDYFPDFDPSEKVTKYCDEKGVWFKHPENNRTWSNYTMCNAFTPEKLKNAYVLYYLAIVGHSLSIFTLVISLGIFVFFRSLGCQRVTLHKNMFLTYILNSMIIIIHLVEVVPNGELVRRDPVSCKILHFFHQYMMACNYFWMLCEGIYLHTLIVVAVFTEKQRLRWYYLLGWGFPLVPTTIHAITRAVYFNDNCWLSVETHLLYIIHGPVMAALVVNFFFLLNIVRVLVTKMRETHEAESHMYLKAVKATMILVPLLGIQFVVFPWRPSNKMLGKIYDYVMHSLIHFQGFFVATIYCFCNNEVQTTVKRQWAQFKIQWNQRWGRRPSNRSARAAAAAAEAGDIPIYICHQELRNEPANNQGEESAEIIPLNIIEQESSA
T1 sequence (O60896 whole entry): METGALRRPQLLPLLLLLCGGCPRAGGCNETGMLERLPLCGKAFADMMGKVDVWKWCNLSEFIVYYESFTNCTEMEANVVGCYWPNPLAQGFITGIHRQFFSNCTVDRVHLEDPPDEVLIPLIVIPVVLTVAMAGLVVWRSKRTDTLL

[2] = molecular target: T1, Amylin receptor AMY3; CALCR/RAMP3; test: Displacement of [125I]-labeled rat amylin from human amylin receptor expressed in BHK tkts13 whole cells co-expressing RAMP3 incubated for 60 mins by scintillation proximity assay; format: cell-based
[3] = molecular target: T2, Calcitonin receptor (Homo sapiens, UniProt P30988); test: Agonist activity at human calcitonin receptor expressed in BHK570 cells assessed as increase in intracellular cAMP concentration incubated for 3 hrs in presence of 10% FBS by CRE luciferase reporter gene assay; format: functional, cell-based
T2 sequence (P30988 whole entry): T1 sequence (P30988 whole entry)

[4] = molecular target: T2, Calcitonin receptor; test: Agonist activity at human calcitonin receptor expressed in BHK570 cells assessed as increase in intracellular cAMP concentration incubated for 3 hrs in absence of albumin by CRE luciferase reporter gene assay; format: functional, cell-based
[5] = Solubility in 100 mM bistrispropane buffer at pH 7.5 incubated for 18 hrs by UPLC analysis; format: physicochemical
[6] = Solubility in 100 mM bistrispropane buffer at pH 7.0 incubated for 18 hrs by UPLC analysis; format: physicochemical
[7] = Solubility in 100 mM bistrispropane buffer at pH 6.5 incubated for 18 hrs by UPLC analysis; format: physicochemical
[8] = Solubility in 100 mM bistrispropane buffer at pH 6.0 incubated for 18 hrs by UPLC analysis; format: physicochemical
[9] = Solubility in 100 mM bistrispropane buffer at pH 8.0 incubated for 18 hrs by UPLC analysis; format: physicochemical
[10] = Solubility in 100 mM glycylglycine buffer at pH 3.0 incubated for 18 hrs by UPLC analysis; format: physicochemical
[11] = Solubility in 100 mM glycylglycine buffer at pH 4.0 incubated for 18 hrs by UPLC analysis; format: physicochemical
[12] = Solubility in 100 mM glycylglycine buffer at pH 5.0 incubated for 18 hrs by UPLC analysis; format: physicochemical

Compound | EC50 [1] | IC50 [2] | EC50 [3] | EC50 [4] | solubility at 18 h [5] | solubility at 18 h [6] | solubility at 18 h [7] | solubility at 18 h [8] | solubility at 18 h [9] | solubility at 18 h [10] | solubility at 18 h [11] | solubility at 18 h [12]
CC(C)C[C@H](NC(=O)[C@H](C)NC(=O)[C@H](C)NC(=O)[C@@H](NC(=O)[C@H](CO)NC(=O)[C@H](CC(C)C)NC(=O)[C@H](CCC(=O)O)NC(=O)[C@H](CO)NC(=O)[C@H](C)NC(=O)CC[C@H](NC(=O)CCCCCCCCCCCCCCCCCCC(=O)O)C(=O)O)[C@@H](C)O)C(=O)NCC(=O)N[C@@H](CCCNC(=N)N)C(=O)N[C@@H](CC(C)C)C(=O)N[C@@H](CO)C(=O)N[C@@H](C)C(=O)N[C@@H](CCC(=O)O)C(=O)N[C@@H](CC(C)C)C(=O)N[C@@H](Cc1cnc[nH]1)C(=O)N[C@@H](CCC(=O)O)C(=O)N[C@@H](CC(C)C)C(=O)N[C@@H](C)C(=O)N[C@H](C(=O)N[C@@H](Cc1ccc(O)cc1)C(=O)N1CCC[C@H]1C(=O)N[C@@H](CCCNC(=N)N)C(=O)N[C@H](C(=O)N[C@@H](CCC(=O)O)C(=O)N[C@H](C(=O)NCC(=O)N[C@@H](CO)C(=O)NCC(=O)N[C@@H](CO)C(=O)N1CCC[C@H]1C(=O)N[C@@H](CCCCN)C(=O)O)[C@@H](C)O)[C@@H](C)O)[C@@H](C)O ({C20 diacid-γGlu}-ASELSTAALGRLSAELHELATYPRTETGSGSPK-OH) | 0.239 nM | 21 nM | 0.053 nM | – | – | – | – | – | – | – | – | –
CC(C)C[C@H](NC(=O)[C@H](C)NC(=O)[C@H](C)NC(=O)[C@@H](NC(=O)[C@H](CO)NC(=O)[C@H](CC(C)C)NC(=O)[C@H](CCC(=O)O)NC(=O)[C@H](CO)NC(=O)[C@H](C)NC(=O)CC[C@H](NC(=O)CCCCCCCCCCCCCCCCCCC(=O)O)C(=O)O)[C@@H](C)O)C(=O)NCC(=O)N[C@@H](CCCNC(=N)N)C(=O)N[C@@H](CC(C)C)C(=O)N[C@@H](CO)C(=O)N[C@@H](C)C(=O)N[C@@H](CCC(=O)O)C(=O)N[C@@H](CC(C)C)C(=O)N[C@@H](Cc1cnc[nH]1)C(=O)N[C@@H](CCC(=O)O)C(=O)N[C@@H](CC(C)C)C(=O)N[C@@H](C)C(=O)N[C@H](C(=O)N[C@@H](Cc1ccc(O)cc1)C(=O)N1CCC[C@H]1C(=O)N[C@@H](CCCNC(=N)N)C(=O)N[C@H](C(=O)N[C@@H](CCC(=O)O)C(=O)N[C@H](C(=O)NCC(=O)N[C@@H](CO)C(=O)NCC(=O)N[C@@H](CO)C(=O)N1CCC[C@H]1C(=O)NCC(=O)O)[C@@H](C)O)[C@@H](C)O)[C@@H](C)O ({C20 diacid-γGlu}-ASELSTAALGRLSAELHELATYPRTETGSGSPG-OH) | 0.187 nM | 7.26 nM | 0.05 nM | 0.064 nM | – | – | – | – | – | – | – | –
CC(C)C[C@H](NC(=O)CNC(=O)[C@H](CO)NC(=O)[C@H](C)NC(=O)CC[C@H](NC(=O)CCCCCCCCCCCCCCCCCCC(=O)O)C(=O)O)C(=O)N[C@@H](CO)C(=O)N[C@H](C(=O)N[C@@H](C)C(=O)N[C@@H](C)C(=O)N[C@@H](CC(C)C)C(=O)NCC(=O)N[C@@H](CCCNC(=N)N)C(=O)N[C@@H](CC(C)C)C(=O)N[C@@H](CO)C(=O)N[C@H](C(=O)N[C@@H](CCC(=O)O)C(=O)N[C@@H](CC(C)C)C(=O)N[C@@H](Cc1cnc[nH]1)C(=O)N[C@@H](CCC(=O)O)C(=O)N[C@@H](CC(C)C)C(=O)N[C@@H](CCC(=O)O)C(=O)N[C@H](C(=O)N[C@@H](Cc1ccc(O)cc1)C(=O)N1CCC[C@H]1C(=O)N[C@@H](CCCNC(=N)N)C(=O)N[C@H](C(=O)N[C@@H](CCC(=O)O)C(=O)N[C@H](C(=O)NCC(=O)N[C@@H](CO)C(=O)NCC(=O)N[C@H](C(=O)N[C@@H](Cc1ccc(O)cc1)C(N)=O)[C@@H](C)O)[C@@H](C)O)[C@@H](C)O)[C@@H](C)O)[C@@H](C)O)[C@@H](C)O ({C20 diacid-γGlu}-ASGLSTAALGRLSTELHELETYPRTETGSGTY-NH2) | 0.054 nM | 0.431 nM | 0.067 nM | 0.018 nM | ≥ 200 µM | ≥ 200 µM | ≥ 200 µM | ≥ 200 µM | ≥ 200 µM | ≥ 200 µM | – | –
CC(C)C[C@H](NC(=O)[C@H](CCC(=O)O)NC(=O)[C@H](Cc1cnc[nH]1)NC(=O)[C@H](CC(C)C)NC(=O)[C@H](CCC(=O)O)NC(=O)[C@H](C)NC(=O)[C@H](CO)NC(=O)[C@H](CC(C)C)NC(=O)[C@H](CCCNC(=N)N)NC(=O)CNC(=O)[C@H](CC(C)C)NC(=O)[C@@H](NC(=O)[C@H](C)NC(=O)[C@@H](NC(=O)[C@H](CO)NC(=O)[C@H](CC(C)C)NC(=O)[C@@H]1CCCN1C(=O)[C@H](CO)NC(=O)[C@H](C)NC(=O)[C@H](CCC(=O)O)NC(=O)CCCCCCCCCCCCCCCCC(=O)O)[C@@H](C)O)C(C)C)C(=O)N[C@@H](C)C(=O)N[C@H](C(=O)N[C@@H](CC(C)C)C(=O)N1CCC[C@H]1C(=O)N[C@@H](CCCNC(=N)N)C(=O)N[C@H](C(=O)N[C@@H](CCC(=O)O)C(=O)N[C@H](C(=O)NCC(=O)N1CCC[C@H]1C(=O)N[C@@H](CCC(=O)O)C(=O)N[C@@H](CO)C(=O)N1CCC[C@H]1C(N)=O)[C@@H](C)O)[C@@H](C)O)[C@@H](C)O ({C18 diacid}-EASPLSTAVLGRLSAELHELATLPRTETGPESP-NH2) | 0.014 nM | 0.323 nM | – | 0.007 nM | ≥ 200 µM | ≥ 200 µM | ≥ 200 µM | ≥ 200 µM | ≥ 200 µM | ≥ 200 µM | ≥ 200 µM | ≥ 200 µM
CC[C@H](C)[C@H](NC(=O)[C@H](CCC(=O)O)NC(=O)[C@H](Cc1cnc[nH]1)NC(=O)[C@H](CC(C)C)NC(=O)[C@H](CCC(=O)O)NC(=O)[C@H](C)NC(=O)[C@H](CO)NC(=O)[C@H](CC(C)C)NC(=O)[C@H](CCCNC(=N)N)NC(=O)CNC(=O)[C@H](CC(C)C)NC(=O)[C@H](C)NC(=O)[C@H](C)NC(=O)[C@@H](NC(=O)[C@H](CO)NC(=O)[C@H](CC(C)C)NC(=O)[C@H](CCC(=O)O)NC(=O)[C@H](CO)NC(=O)[C@H](C)NC(=O)[C@H](CCC(=O)O)NC(=O)CCCCCCCCCCCCCCCCC(=O)O)[C@@H](C)O)C(=O)N[C@@H](C)C(=O)N[C@H](C(=O)N[C@@H](CC(C)C)C(=O)N1CCC[C@H]1C(=O)N[C@@H](CCCNC(=N)N)C(=O)N[C@H](C(=O)N[C@@H](CCC(=O)O)C(=O)N[C@H](C(=O)NCC(=O)N1CCC[C@H]1C(=O)N[C@@H](CCC(=O)O)C(=O)N[C@@H](CO)C(=O)N1CCC[C@H]1C(N)=O)[C@@H](C)O)[C@@H](C)O)[C@@H](C)O ({C18 diacid}-EASELSTAALGRLSAELHEIATLPRTETGPESP-NH2) | 0.006 nM | 0.511 nM | – | 0.005 nM | ≥ 200 µM | ≥ 200 µM | ≥ 200 µM | ≥ 200 µM | ≥ 200 µM | ≥ 200 µM | ≥ 200 µM | ≥ 200 µM

— ChEMBL document CHEMBL4420076, “Amylin and calcitonin receptor agonist” (2017)
